Laboratory results as given in paper PMC5538626, “Structural and functional analysis of the GABARAP interaction motif (GIM)” (EMBO Reports, 2017).
Ends that are not written are not given here.

Legend:
[1] = test system: GABARAP subfamily proteins (GABARAP-L1, GABARAP-L2); assay: NMR titration of 15N-labelled GABARAP proteins with PLEKHM1-LIR peptide; format: binding, human; conditions: 298 K, 0.18 mM 15N-labelled protein, up to two times peptide excess
Procedure: (§1) All NMR experiments were performed at 298 K on Bruker Avance spectrometers operating at proton frequencies of 500, 600 and 700 MHz. Titration experiments were performed with a 0.18 mM ^15N‐labelled LC3 and GABARAP protein samples to which the non‐labelled PLEKHM1‐LIR peptide was added stepwise until four times excess to LC3 proteins or two times excess to the GABARAP proteins. Backbone HN resonances for selected mATG8 proteins in complex with the PLEKHM1‐LIR peptide were assigned using [^15N‐^1H]‐TROSY versions of 3D HNCACB experiment. For assignment of PLEKHM1‐LIR peptide backbone HN resonances in complexes with the LC3 and GABARAP proteins, [^15N‐^1H]‐TROSY versions of 3D HNCACB experiment and hCcconh‐TOCSY experiment were used.

[2] = test system: LC3 subfamily proteins (LC3A, LC3B); assay: NMR titration of 15N-labelled LC3 proteins with PLEKHM1-LIR peptide; format: binding, human; conditions: 298 K, 0.18 mM 15N-labelled protein, up to four times peptide excess
Procedure: as §1

[3] = target: T1, LC3A (Homo sapiens, UniProt Q9H492); assay: ITC titration of PLEKHM1-LIR peptide into LC3A; format: binding; conditions: 25°C, pH 7.0
T1 construct: modified Ub-leader (ubiquitin fusion leader) (N); made in house; host or cells: E. coli NEB T7 Express
Procedure: The genes for the truncated LC3A^2–121, LC3C^8–125, GABARAP^2–117 and GABARAP‐L1^2–117 proteins were cloned into pET30ΔSE vector between the BamHI and XhoI sites using previously established protocols 38. The chimeric constructs of the PLEKHM1‐LIR attached to the LC3A, GABARAP and GABARAP‐L1 proteins were prepared by inserting the oligonucleotide sequence corresponding to the PLEKHM1‐LIR peptide (P^629[…]^638) and glycine–serine linker into the BamHI site of the pET30ΔSE vector, placing the PLEKHM1‐LIR at the N‐terminal of the mature chimeric protein (similar to 31, 38). For the expression of human LC3 and GABARAP proteins for ITC and NMR experiments, plasmids with appropriate modified Ub‐leaders in pET vectors were used 39. Gene, encoding PLEKHM1‐LIR peptide, was ordered as synthetic oligonucleotides (Eurofins Genomics GmbH) and cloned into the pET39_Ub63_ vector 39 by NcoI–BamHI restriction sites. After TEV cleavage, the resulting peptide has the amino acid sequence GAMG‐P^629[…]^642, where the first four residues (GAMG) are the cloning artefact.
The chimeric constructs were expressed as a His‐tag fusion protein in E. coli BL21(DE3) cells. The cells were induced with 0.3 mM IPTG at OD600 0.6 for 16 h at 26°C. The cell pellets were lysed using mechanical sonication in lysis buffer (20 mM Tris–HCl pH 9.0, 100 mM NaCl, 10 mM imidazole, supplemented with 0.1% Triton X‐100). The proteins were purified using Ni‐NTA beads (GE Healthcare) and the His‐tag was cleaved using thrombin (Invitrogen) at room temperature for 16 h. The last step was gel filtration chromatography using a Superdex S200/300 GL column (GE Healthcare). The proteins were concentrated using spin concentrators (Vivaspin). For ITC and NMR studies, the non‐labelled and stable isotopes labelled LC3 and GABARAP proteins were obtained based on the protocols described elsewhere 30, 39. Here, E. coli NEB T7 Express culture transformed with corresponding plasmids were grown till OD600 nm = 1.0 and protein expression was induced with 0.2 mM IPTG. The cultures were incubated at 25°C for 8–12 h before cell harvesting. Isolation and purification procedures were similar to those reported in Ref. 22, 40. Before experiments, all proteins and peptides were equilibrated with a buffer containing 50 mM Na2HPO4, 100 mM NaCl at pH 7.0, and supplied with 5 mM protease inhibitor cocktail.
The protocol for preparation of non‐labelled and ^13C,^15N‐labelled PLEKHM1‐LIR peptide was slightly modified to achieve highest yield of the peptide. The 50 ml M9 culture was inoculated with NEB T7 cell transformed with pET39_Ub63‐PLEKHM1‐LIR plasmid and grown overnight at 37°. The collected cells were resuspended in 2 l of either LB or M9 media contained 1.5 g ^15N‐labelled NH4Cl and 3.0 g of ^13C‐labelled glucose. The cultures were grown at 37° till A(600 nm) = 0.9 and supplied with 1 mM of IPTG to induce Ub63‐PLEKHM1‐LIR overexpression (3 h at 37°). After that cells were harvested by centrifugation, re‐suspended in buffer contained 50 mM Tris–HCl pH = 7.9, 200 mM NaCl, 5% glycerol, 0.1 mg/ml DNase A and 4 mM protease inhibitor cocktail. After cell lysis by French press, debris was removed by centrifugation and clear supernatant was applied onto the column contained Ni‐NTA Sepharose equilibrated with the loading buffer (50 mM Tris–HCl pH = 7.9, 250 mM NaCl, 1% glycerol and 20 mM imidazole). Elution was performed with 400 mM imidazole in the same buffer. An aliquot of pure Ub63‐PLEKHM1‐LIR fractions was further purified by gel filtration on Superdex75 26 × 60 column for control ITC and analytical size exclusion chromatography experiments, remaining fusion protein was processed with the TEV‐protease and PLEKHM1‐LIR peptide was purified to 95% purity by reverse Ni‐NTA chromatography and followed gel filtration on Superdex75 26 × 60 column. Peak maximum of peptide was detected at […] (void volume 115 ml). Pure peptide was concentrated in Amicon concentrators with cut‐off of 3 kDa (> 95% retention). […]

For GAMGPQQEDEWVNVQYPD [PLEKHM1‐LIR WT], the “exchange behaviour upon titration, GABARAP subfamily” value [1] was “slow exchange”, the “exchange behaviour upon titration, LC3 subfamily” value [2] was “intermediate exchange” and the ΔH ([3]; VP-ITC, one-site model, 0.4 mM peptide into 0.020 mM protein, 50 mM Na2HPO4, 100 mM NaCl) was -7 ± 0.2 kcal/mol. The KA [3] was 0.24 ± 0.02 ×10^6 M^−1, the “N (number of binding sites)” value [3] was 0.98 ± 0.02 and the ΔG [3] was -7.33 kcal/mol. For the same sequence, the ΔS [3] was “+1.17 cal mol^−1 K^−1” and the “−T × ΔS” value [3] was -0.35 kcal/mol.
